This note sets out measurements from PubChem BioAssay AID2060895 (Molecular Pharmacology Branch, DTP, NCI, 2025).

“And” between values parts separate entries of the source, which are not always exact repeats. Equal values may be shown once.

The subject of the assay is PDC 899932-113-R3-J6 complex spheroid viability. As to the kind of experiment: Anticancer human tumor 899932-113-R3-J6-PDC patient-derived melanoma cell line growth inhibition [RAS]. The following applies: for viability, T/C: stronger effect = lower value. The source says: RAS pathway inhibitors in Combinations in Complex Spheroids
A high-throughput screen of multi-cell type tumor spheroids was designed to identify active combinations of RAS pathway inhibitors and targeted small molecules. Complex spheroids include a stromal component modeled by human endothelial cells (HUVEC) and fibroblasts modeled by human mesenchymal stem cells (MSCs). The concentration ranges selected for each drug and investigational agent were based upon clinically achievable concentrations if the clinical Cmax of the agent was known.
Compounds. The drugs and investigational agents: abemaciclib (NSC768073), cobimetinib (NSC768068), divarasib (GDC6063, NSC841802), docetaxel (NSC628503), GDC-1971 (RLY-1971, NSC841576), gemcitabine (NSC613327), inavolisib (NSC800729), ipatasertib (NSC767898), KB-0742 (NSC834161), MRTX-1133 (NSC836407), osimertinib (NSC779217), RMC-4630 (NSC839698), RMC-6236 (NSC851965), RMC-6291 (NSC852671), Ro-3306 (NSC812927), sapanisertib (NSC764658), SN-38 (NSC673596), staurosporine (NSC755774), SY5609 (NSC837396), and tovorafenib (DAY101, NSC766906), were obtained from the National Cancer Institute (NCI) Developmental Therapeutics Program Chemical Repository. The FDA-approved anticancer drug set is available from the NCI Developmental Therapeutics Program. […] The stock solutions were prepared in dimethyl sulfoxide (DMSO, Sigma-Aldrich, St. Louis, MO, cat. D2650) at 800-fold the tested concentration and stored at -70 degrees C prior to their use. All drugs and investigational agents were tested over a range starting from a high concentration at or near the clinical Cmax and decreasing in half-log increments. If the clinical Cmax for an agent had not been determined, the highest concentration tested was 10 microM.
Cell Culture. All cells were maintained in an incubator at 37 degrees C and 5% CO2 with 95% humidity. The PDC lines were cultured according to standard operating procedures established by the NCI PDMR. All PDCs were thawed and cultured in Matrigel-coated flasks prepared with a working solution of 1X Ham's F-12 nutrient mix, without supplementation (Invitrogen, Waltham, MA, cat. 11765054), 100 U/mL penicillin-streptomycin (Invitrogen, cat. 15140122), and 2.5% Matrigel (Corning Inc., Corning, NY, cat. 354248) for the first three passages. The 362531-283-R-J2-PDC and 782815-120-R-J1-PDC lines were cultured in 6C/Colon 1B media, which includes advanced DMEM/F-12 (Thermo Fisher Scientific, cat. 12634028), 10 mM HEPES (Thermo Fisher Scientific, cat. 15630080), 1X GlutaMAX supplement (Thermo Fisher Scientific, cat. 35050061), 0.1 mg/mL primocin (InvivoGen, San Diego, CA, cat. ant-pm-2), 10% defined fetal bovine serum, heat inactivated (HyClone Laboratories Inc., Logan, UT, cat. SH30070.03HI), 50% L-WRN conditioned media (ATCC, cat. CRL-3276), 1.25 mM N-Acetyl-L-cysteine (Sigma-Aldrich, cat. A9165), 10 mM nicotinamide (Sigma-Aldrich, cat. N0636), 1X B-27 supplement (Thermo Fisher Scientific, cat. 17504044), 1X N-2 supplement (Thermo Fisher Scientific, cat. 17502048), 50 ng/mL human EGF (Thermo Fisher Scientific, cat. PHG0311), and 10 microM Y-27632 dihydrochloride (Tocris Bioscience, cat. 1254). The K12877-001-R-J1-PDC line was cultured in 6I media, which includes all 6C/Colon 1B media plus 10 ng/mL human FGF-10 (PeproTech, cat. 100-26), 1 ng/mL human FGF-2 (PeproTech, cat. 100-18B), 1 µM prostaglandin E2 (Tocris Bioscience, cat. 2296), […] hydrocortisone (Sigma-Aldrich, cat. H4001), and […] bovine insulin (Sigma-Aldrich, cat. I6634). The K86415-001-R-J1-PDC line was cultured in 6D media, which includes all 6C/Colon 1B media components minus the L-WRN conditioned media. The 485176-168-R4-J1-PDC was cultured in PANC media, which includes all 6C/Colon 1B media plus 100 ng/mL human FGF-10 (PeproTech, cat. 100-26), 500 nM SB-431542 (Selleckchem, cat. S1067), and 10 nM gastrin (Tocris Bioscience, cat. 3006). […]
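For viability, T/C in this document: spheroids exposed to agents for seven days before readout; 100% = DMSO vehicle control wells.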

Take `CC(=O)OC12COC1CC(O)C1(C)C(=O)C(O)C3=C(C)C(OC(=O)C(O)C(NC(=O)OC(C)(C)C)c4ccccc4)CC(O)(C(OC(=O)c4ccccc4)C21)C3(C)C` (stereo not given): the viability, T/C runs as follows: (compound 0.0316 µM) 27.8% [middle of 4 runs]; (compound 0.1 µM) 33.9% [middle of 4 runs]; (compound 0.316 µM) 37.7% [middle of 4 runs]; (compound 1 µM) 49.9% [middle of 4 runs]; (compound 3.16 µM) 73.4% [middle of 4 runs]; (compound 10 µM) 64.2% [middle of 4 runs]. Moreover, under “curve of compound”, the IC50 is < 0.0316 µM.

Regarding `CC1(O)CCCC1n1c(=O)c(C(F)F)cc2cnc(NC3CCN(S(C)(=O)=O)CC3)nc21` (stereo not given), the viability, T/C was 100% [middle of 4 runs] (compound 0.0316 µM); 83.3% [middle of 4 runs] (compound 0.1 µM); 69.4% [middle of 4 runs] (compound 0.316 µM); 65.9% [middle of 4 runs] (compound 1 µM); 58.3% [middle of 4 runs] (compound 3.16 µM); 21.9% [middle of 4 runs] (compound 10 µM).

For `CCC(CC)c1cc(NC2CCC(N)C2)n2nccc2n1` (stereo not given), the viability, T/C (compound 0.0316 µM) is 106% [middle of 4 runs]; the viability, T/C (compound 0.1 µM) is 94.7% [middle of 4 runs]; the viability, T/C (compound 0.316 µM) is 99.3% [middle of 4 runs]; the viability, T/C (compound 3.16 µM) is 1.29% [middle of 4 runs]; the viability, T/C (compound 10 µM) is 1% [middle of 4 runs]. In addition, under “curve of compound”, the IC50 was 1.63 µM [middle of 4 runs].

On to `C[C@@H](NC(=O)c1ncnc(N)c1Cl)c1ncc(C(=O)Nc2cc(C(F)(F)F)c(Cl)cn2)s1`, for which the viability, T/C was 126% [middle of 4 runs] (compound 0.0316 µM), 132% [middle of 4 runs] (compound 0.1 µM), 105% [middle of 4 runs] (compound 3.16 µM) and 32.6% [middle of 4 runs] (compound 10 µM). In addition, the IC50 (curve of compound) is 7.59 µM [middle of 4 runs].

As to `Cc1nc(N2CCC3(CC2)COC(C)C3N)c(CO)nc1Sc1ccnc(N)c1Cl` (stereo not given), the viability, T/C is, setting by setting: (compound 0.0316 µM) 104% [middle of 4 runs]; (compound 0.1 µM) 103% [middle of 4 runs]; (compound 0.316 µM) 111% [middle of 4 runs]; (compound 1 µM) 112% [middle of 4 runs]; (compound 3.16 µM) 112% [middle of 4 runs]; (compound 10 µM) 108% [middle of 4 runs]. Besides, for the setting “curve of compound”, the IC50 is > 10 µM.

For the compound `NC1c2ccccc2OC12CCN(c1cnc3c(N4CCCc5ncccc54)n[nH]c3n1)CC2` (stereo not given), the viability, T/C is, setting by setting: (compound 0.0316 µM) 114% [middle of 4 runs]; (compound 0.1 µM) 106% [middle of 4 runs]; (compound 0.316 µM) 115% [middle of 4 runs]; (compound 1 µM) 112% [middle of 4 runs]; (compound 3.16 µM) 114% (2×) and 102% and 108%; (compound 10 µM) 105% (2×) and 86.2% and 87.2%. For the setting “curve of compound”, the IC50 was > 10 µM.

Take `C=CC(=O)Nc1cc(Nc2nccc(-c3cn(C)c4ccccc34)n2)c(OC)cc1N(C)CCN(C)C` + C#Cc1c(F)ccc2cc(O)cc(-c3ncc4c(N5CC6CCC(C5)N6)nc(OCC56CCCN5CC(F)C6)nc4c3F)c12: the half-inhibitory concentration (IC50) is, setting by setting: (curve of first compound, second compound 0.0316 µM) > 1 µM; (curve of first compound, second compound 0.1 µM) > 1 µM; (curve of first compound, second compound 0.316 µM) > 1 µM; (curve of first compound, second compound 1 µM) > 1 µM; (curve of first compound, second compound 3.16 µM) > 1 µM; (curve of first compound, second compound 10 µM) > 1 µM. For the same compound, the viability, T/C is, setting by setting: (second compound 0.0316 µM, first compound 0.00316 µM) 117%; (second compound 0.0316 µM, first compound 0.01 µM) 110%; (second compound 0.0316 µM, first compound 0.0316 µM) 109%; (second compound 0.0316 µM, first compound 0.1 µM) 103%; (second compound 0.0316 µM, first compound 0.316 µM) 110%; (second compound 0.0316 µM, first compound 1 µM) 95.6%. The viability, T/C by setting is: (second compound 0.1 µM, first compound 0.00316 µM) 103%; (second compound 0.1 µM, first compound 0.01 µM) 107%; (second compound 0.1 µM, first compound 0.0316 µM) 106%; (second compound 0.1 µM, first compound 0.1 µM) 100%; (second compound 0.1 µM, first compound 0.316 µM) 113%; (second compound 0.1 µM, first compound 1 µM) 103%. For the same compound, the viability, T/C (second compound 0.316 µM, first compound 0.00316 µM) was 111%; the viability, T/C (second compound 0.316 µM, first compound 0.01 µM) was 106%; the viability, T/C (second compound 0.316 µM, first compound 0.0316 µM) was 106%; the viability, T/C (second compound 0.316 µM, first compound 0.1 µM) is 107%; the viability, T/C (second compound 0.316 µM, first compound 0.316 µM) is 111%; the viability, T/C (second compound 0.316 µM, first compound 1 µM) was 104%. For the same compound, the viability, T/C (second compound 1 µM, first compound 0.00316 µM) is 114%; the viability, T/C (second compound 1 µM, first compound 0.01 µM) was 113%; the viability, T/C (second compound 1 µM, first compound 0.0316 µM) is 119%; the viability, T/C (second compound 1 µM, first compound 0.1 µM) is 122%; the viability, T/C (second compound 1 µM, first compound 0.316 µM) is 105%; the viability, T/C (second compound 1 µM, first compound 1 µM) is 115%. For the same compound, the viability, T/C reads like this: (second compound 3.16 µM, first compound 0.00316 µM) 115%; (second compound 3.16 µM, first compound 0.01 µM) 116%; (second compound 3.16 µM, first compound 0.0316 µM) 114%; (second compound 3.16 µM, first compound 0.1 µM) 117%; (second compound 3.16 µM, first compound 0.316 µM) 112%; (second compound 3.16 µM, first compound 1 µM) 114%. Besides, the viability, T/C (second compound 10 µM, first compound 0.00316 µM) is 123%; the viability, T/C (second compound 10 µM, first compound 0.01 µM) is 118%; the viability, T/C (second compound 10 µM, first compound 0.0316 µM) was 110%; the viability, T/C (second compound 10 µM, first compound 0.1 µM) is 128%; the viability, T/C (second compound 10 µM, first compound 0.316 µM) is 120%; the viability, T/C (second compound 10 µM, first compound 1 µM) was 93.7%.

For orientation: viability, T/C means the result in the treated group divided by that in the control group, in per cent. The IC50 is the concentration that inhibits the measured activity by half.
